Reference: patent US20230057359A1, “NOVEL USE OF STEVIOL” (SUNTORY HOLDINGS LIMITED, priority 2019, published 2023)

Columns and labels:
[1] = tested on: adipocytes differentiated from normal human subcutaneous preadipocytes; assay: Sugar uptake test in adipocytes (intracellular 2DG6P, Glucose Uptake-Glo); assay type: cell-based; details: for Relative luminescence intensity (%) (relative intracellular 2DG6P level): 4 hours, DMSO=100%
Method: Normal human subcutaneous preadipocytes were precultured using the growth medium in the same manner as in Example 1. The cells were detached using 0.25% trypsin-EDTA, seeded at 10,000 cells/100 μL/well to a 96-well plate using the growth medium, and cultured overnight in a CO2 incubator. On the next day, the medium was replaced with the differentiation medium (100 μL). The cells were cultured for 10 days in a CO2 incubator to induce their differentiation into adipocytes. On the fourth and seventh days after the differentiation induction, the medium was replaced with a fresh differentiation medium (100 μL). Next, the medium was replaced with 100 μLL of a serum-free medium (PBM-2 medium supplemented with 2 mM L-glutamine, 50 μg/mL gentamycin, and 37 ng/mL amphotericin-B, Cat. No. PT-8002, Lonza Group AG), and the cells were cultured for 18 hours in a CO2 incubator. Subsequently, the medium was replaced with 100 μL of a glucose-free serum-free medium (DMEM, no glucose, Cat. No. 11966025, Thermo Fisher Scientific Inc.) supplemented with varying concentrations of steviol (10, 30 or 100 μg/mL, dissolved in 0.1% DMSO (final concentration)), and the cells were cultured for 4 hours in a CO2 incubator. A glucose-free serum-free medium supplemented with 100 μM acadesine (AICAR, Cat. No. A9978, Sigma-Aldrich Co., LLC) was used as a positive control, and a vehicle control composed of a glucose-free serum-free medium supplemented with 0.1% DMSO (final concentration) and a no-addition control composed of only a glucose-free serum-free medium were used as negative controls. After culture, intracellular 2-deoxyglucose-6-phosphate (2DG6P, 2-deoxyglucose (2DG) phosphorylation product) level was measured by the following procedures using Glucose Uptake-Glo Assay kit (Cat. No. J1341, Promega Corp.). The medium of each well was replaced with a DPBS solution (50 μL) supplemented with 1 mM 2DG. After incubation at room temperature for 10 minutes, a stop buffer (25 μL), a neutralization buffer (25 μL), and a 2DG6P detection reagent (100 μL) were added thereto. After incubation at room temperature for 60 minutes, luminescence intensity was measured using a plate reader (VARIOSKAN FLASH, Thermo Fisher Scientific Inc.), and relative luminescence intensity was regarded as a relative intracellular 2DG6P level. Significant difference among the test groups to be compared (no-addition group vs positive control group, vehicle control group vs steviol addition group) was tested by the Student's t test. The two-tailed test was conducted, and P<0.05 was regarded as having significant difference.

[2] = tested on: HepG2 cells; assay: Cytotoxicity of steviol to hepatocytes (WST-8 viable cell count); assay type: cell-based; details: for Relative viable cell count (%): 24 hours, Control=100%
Method: 5×10^5 HepG2 cells (Cat. No. JCRB1054, JCRB) were precultured for 5 days in a T75 flask using a growth medium (DMEM (high glucose, Cat. No. D5796, Sigma-Aldrich Co., LLC) supplemented with 10% FBS (Cat. No. 172012, Sigma-Aldrich Co., LLC) and 1% penicillin-streptomycin (Cat. No. 09367-34, Nacalai Tesque Inc.)) in a CO2 incubator. The cells were detached using 0.25% trypsin-EDTA, seeded at 10,000 cells/100 μL/well to a 96-well plate using the growth medium, and cultured overnight in a CO2 incubator. On the next day, the medium was replaced with 100 μL of a growth medium supplemented with varying concentrations of steviol (0.001, 0.01, 0.1, 1, 10 or 100 μg/mL, dissolved in 0.1% DMSO (final concentration)), and the cells were cultured for 24 hours in a CO2 incubator. A vehicle control composed of a growth medium supplemented with 0.1% DMSO (final concentration) was used as a negative control (Control). Viable cell count measurement was performed by the WST-8 method. Specifically, the medium of each well after culture was replaced with 100 μL of growth medium supplemented with a 1/10 amount of viable cell count measurement reagent SF, and the cells were incubated in a CO2 incubator. 30 minutes later and 90 minutes later, absorbance (450 nm, reference wavelength: 630 nm) was measured using a plate reader (VARIOSKAN FLASH, Thermo Fisher Scientific Inc.), and absorbance difference per 60 minutes was regarded as a relative viable cell count.

Question: `C=C1C[C@@]23CC[C@H]4[C@@](C)(CCC[C@@]4(C)C(=O)O)[C@@H]2CC[C@]1(O)C3` [Steviol, steviol] was tested. Which “sugar uptake in adipocytes (in words)” value ([1]; 10, 30 or 100 μg/mL) did it give?
Answer: promoted sugar uptake in adipocytes in a concentration-dependent manner

Question: What about the “Relative luminescence intensity (%) (relative intracellular 2DG6P level)” value (“Relative luminescence intensity (%)” for short) ([1]; steviol 10 μg/mL) of the same compound?
Answer: 109.6%

Question: And the “Relative luminescence intensity (%)” value ([1]; steviol 30 μg/mL)?
Answer: 142.5%

Question: What about the “Relative luminescence intensity (%)” value ([1]; steviol 100 μg/mL) of the same compound?
Answer: 216.2%

Question: What about the “cytotoxicity to hepatocytes (in words)” value ([2]; 100 μg/mL steviol) of the same compound?
Answer: no particular cytotoxicity to be noted was found

Question: What about the “Relative viable cell count (%)” value ([2]; steviol 0.01 μg/mL) of the same compound?
Answer: 98.8%

Question: What about the “Relative viable cell count (%)” value ([2]; steviol 0.1 μg/mL) of the same compound?
Answer: 98.4%

Question: What about the “Relative viable cell count (%)” value ([2]; steviol 1 μg/mL) of the same compound?
Answer: 95.3%

Question: What about the “Relative viable cell count (%)” value ([2]; steviol 10 μg/mL) of the same compound?
Answer: 95.6%

Question: What about the “Relative viable cell count (%)” value ([2]; steviol 100 μg/mL) of the same compound?
Answer: 87.7%
